US10894807B2 (Siemens Medical Solutions USA, Inc., priority 2011, dated 2021)

Target: human PSMA (Homo sapiens (Human), UniProt Q04609)
Assay: Enzymatic assay for in vitro evaluation of PSMA inhibitors (fluorescent assay of PSMA activity, NAAG substrate, OPA detection of glutamate)
Assay type: biochemical

Sequence of human PSMA (Q04609 whole entry): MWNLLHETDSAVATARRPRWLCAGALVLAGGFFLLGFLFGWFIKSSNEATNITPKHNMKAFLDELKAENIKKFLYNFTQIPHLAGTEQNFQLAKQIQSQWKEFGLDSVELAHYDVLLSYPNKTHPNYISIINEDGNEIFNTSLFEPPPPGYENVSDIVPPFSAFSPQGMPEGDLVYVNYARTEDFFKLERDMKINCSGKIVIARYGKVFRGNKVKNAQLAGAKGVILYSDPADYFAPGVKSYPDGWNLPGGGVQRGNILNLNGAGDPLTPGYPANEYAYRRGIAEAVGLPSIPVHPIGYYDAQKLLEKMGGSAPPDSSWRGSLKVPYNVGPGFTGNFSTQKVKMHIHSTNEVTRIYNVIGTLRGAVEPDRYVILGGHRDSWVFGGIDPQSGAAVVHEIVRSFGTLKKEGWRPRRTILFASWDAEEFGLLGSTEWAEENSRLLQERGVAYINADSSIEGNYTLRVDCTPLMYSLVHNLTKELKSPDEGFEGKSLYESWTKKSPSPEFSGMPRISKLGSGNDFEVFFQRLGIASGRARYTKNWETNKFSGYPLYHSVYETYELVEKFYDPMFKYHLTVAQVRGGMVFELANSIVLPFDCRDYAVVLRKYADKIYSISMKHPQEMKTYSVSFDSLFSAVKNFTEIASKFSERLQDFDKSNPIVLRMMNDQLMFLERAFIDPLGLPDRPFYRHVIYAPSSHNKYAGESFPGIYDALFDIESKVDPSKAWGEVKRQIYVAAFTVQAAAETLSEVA

O=C(O)CC[C@H](NC(=O)N[C@@H](CCCCNC(=O)c1cc(NC(=O)Cn2cc(CCCF)nn2)cc(C(=O)NCCCC[C@H](NC(=O)N[C@@H](CCC(=O)O)C(=O)O)C(=O)O)c1)C(=O)O)C(=O)O [P283, (2S,2′S)-2,2′-(((((1S,1′S)-((5-(2-(4-(3-fluoropropyl)-1H-1,2,3-triazol-1-yl)acetamido)isophthaloyl)bis(azanediyl))bis(1-carboxypentane-5,1-diyl))bis(azanediyl))bis(carbonyl))bis(azanediyl))dipentanedioic Acid]
Ki: 0.9 nM | PSMA Blkg % (1.0 μM): 98%

CN(C(=O)N[C@@H](CCC(=O)O)C(=O)O)[C@@H](CCCCNC(=O)OCc1ccccc1)C(=O)O [P018, (9S,13S)-10-Methyl-3,11-dioxo-1-phenyl-2-oxa-4,10,12-triazapentadecane-9,13,15-tricarboxylic Acid]
Ki: 15.6 nM | PSMA Blkg % (10 μM) (compound at 10 μM): 99%

O=C(O)CC[C@H](NC(=O)C[C@H](NC(=O)CCCNC(=O)OCc1ccccc1)C(=O)O)C(=O)O [P116, (10S,14S)-3,8,12-Trioxo-1-phenyl-2-oxa-4,9,13-triazahexadecane-10,14,16-tricarboxylic Acid]
PSMA Blkg % (10 μM) (compound at 10 μM): 31%

O=C(O)CC[C@H](NC(=O)N[C@@H](CCCCNc1cc(OCCOCCOCCn2cc(CCCF)nn2)ccc1[N+](=O)[O-])C(=O)O)C(=O)O [P251, (S)-2-(3-((S)-1-Carboxy-5-((5-(2-(2-(2-(4-(3-fluoropropyl)-1H-1,2,3-triazol-1-yl)ethoxy)ethoxy)ethoxy)-2-nitrophenyl)amino)pentyl)ureido)pentanedioic Acid]
Ki: 0.34 nM | PSMA Blkg % (1.0 μM): 100%

O=C(O)CC[C@H](NC(=O)N[C@@H](Cc1ccc(NC(=O)Cn2cc(CCCF)nn2)cc1)C(=O)O)C(=O)O [P217, (S)-2-(3-((S)-1-Carboxy-2-(4-(4-(4-(3-fluoropropyl)-1H-1,2,3-triazol-1-yl)-acetamido)-phenyl)ethyl)ureido)pentanedioic Acid]
Ki: 31.3 nM | PSMA Blkg % (10 μM): 96%

O=C(O)CC[C@H](NC(=O)C[C@H](NC(=O)CCCc1ccc([N+](=O)[O-])cc1)C(=O)O)C(=O)O [P123, (S)-2-((S)-3-Carboxy-3-(4-(4-nitrophenyl)butanamido)propanamido)pentanedioic Acid]
PSMA Blkg % (10 μM) (compound at 10 μM): 17%

O=C(O)CC[C@@H](C(=O)O)N1C(=O)N([C@@H](CCCCNC(=O)OCc2ccccc2)C(=O)O)C(=O)C2(CCC2)C1=O [P106, (2S)-2-(8-((S)-5-(Benzyloxycarbonylamino)-1-carboxypentyl)-5,7,9-trioxo-6,8-diazaspiro[3.5]nonan-6-yl)pentanedioic Acid]
PSMA Blkg % (10 μM) (compound at 10 μM): 67%

Cn1c(=O)n([C@@H](CCCCNC(=O)OCc2ccccc2)C(=O)O)c(=O)n([C@@H](CCC(=O)O)C(=O)O)c1=O [P085, (S)-2-(3-((S)-5-(Benzyloxycarbonylamino)-1-carboxypentyl)-5-methyl-2,4,6-trioxo-1,3,5-triazinan-1-yl)pentanedioic Acid]
PSMA Blkg % (10 μM) (compound at 10 μM): 0%

O=C(O)CC[C@H](NC(=O)CN(O)C(=O)CCCNC(=O)c1ccc(-n2cc(CCCF)nn2)cc1)C(=O)O [P141, (S)-2-(2-(4-(4-(4-(3-Fluoropropyl)-1H-1,2,3-triazol-1-yl)benzamido)-N-hydroxybutanamido)acetamido)pentanedioic Acid]
PSMA Blkg % (10 μM) (compound at 10 μM): 1%

O=C(O)CCC(CP(=O)(O)OCC1CCN(C(=O)CCCc2ccc(-n3cc(CCCF)nn3)cc2)CC1)C(=O)O (centres unmarked) [P226, 2-((((1-(4-(4-(4-(3-Fluoropropyl)-1H-1,2,3-triazol-1-yl)phenyl)butanoyl)piperidin-4-yl)methoxy)(hydroxy)phosphoryl)methyl)pentanedioic Acid]
PSMA Blkg % (1.0 μM): 32%
